Results reported in patent US10611797B2, “Peptide having anticancer activity, and pharmaceutical composition and dietary supplement composition for preventing and treating cancer, both of which contain same as active ingredient” (IUCF-HYU (INDUSTRY-UNIVERSITY COOPERATION FOUNDATION …, priority 2015, dated 2020).

Assays:
[1] = system: cancer cell lines (HepG2, Hep3B, 293T, MCF-7, MDA-MB-231, K562, HEL, HL60, U251, U373MG, U87MG); test: Microscopic observation of growth inhibition and apoptosis, cancer cell lines; assay type: cell-based, human; conditions: 2 μM, 48 h
Procedure: (§2) Liver cancer cell lines (HepG2, Hep3B), a human embryonic kidney cell line (293T), breast cancer cell lines (MCF-7, MDA-MB-231), blood tumor cell lines (K562, HEL, HL60), glioblastoma cell lines (U251, U373MG, U87MG), a mammary epithelial cell line (MCF10A), a lung epithelial cell line (BEAS2B), human mesenchymal stem cells (hMSCs), and mouse primary T cells (resting and activated T cells) were inoculated into 96-well plates at a density of 3,000 cells/well, supplemented with 50 μl of culture solution, and cultured at 37° C. and 5% CO2 for 1 h. […] After completion of the culture, cells were observed under an inverted phase contrast microscope and their morphological changes were imaged.

[2] = system: MCF-7, 293T, MDA-MB-231 mammospheres; test: Mammosphere culture of cancer cell lines, microscopy; assay type: cell-based, human; conditions: 2 μM, 4 days
Text: Cancer cell lines (MCF-7, 293T, MDA-MB-231) were inoculated at a density of 1×10^4 cells/ml into polyHEMA-coated 100 phi Petri dishes. […] Cells were observed under an inverted phase contrast microscope once a day and their morphological changes were imaged. […] Mammosphere culture of cancer cell lines is known to increase the number of cancer stem cells.

[3] = system: human embryonic stem cell line (H9) and co-cultured cells; test: Microscopy of human embryonic stem cell line (H9) in co-culture; assay type: cell-based
Procedure: Two colonies of a human embryonic stem cell line (H9) per well were inoculated into 96-well plates on which normal embryonic epithelial cells or embryonic epithelial cells fluorescently stained with rhodamine were plated, followed by culture for 24 h.

[4] = system: CD34+ hematopoietic progenitor cells (HPCs); test: Microscopy of hematopoietic progenitor cells and cells differentiating into erythrocytes; assay type: cell-based, human; conditions: up to 10 μM, 72 h; days 3, 7, 14 of differentiation
Procedure: Cells were observed under an inverted phase contrast microscope and their morphological changes were imaged. The CD34+ hematopoietic progenitor cells were cultured in IMDM media containing 1% BSA. For differentiation induction into erythrocytes, cells were cultured with EPO, SCF, IL-3, and hydrocortisone for the first 7 days, and thereafter, cultured in media supplemented with EPO, SCF, and IL-3 only.

[5] = system: liver cancer cell lines (HepG2, Hep3B); test: MTT cell viability, liver cancer cell lines; assay type: cell-based, human; conditions: 0-10 μM, 24-96 h
Procedure: (§3) Liver cancer cell lines (HepG2, Hep3B) were inoculated into 96-well plates at a density of 3000 cells/well, and then 50 μl of culture solution was added thereto. Cells were cultured at 37° C. and 5% CO2 for 1 h. […] Cells were cultured at 37° C. and 5% CO2 for 24, 48, 72, and 96 h. After completion of the culture, the remaining culture solution was removed from the well plates, the cultures were diluted with MTT solution (3-(4,5-dimethylthiazol-2-yl)-2,5-diphenyltetrazole bromide) to a final density of 500 μg/ml, and cells were cultured at 37° C. and 5% CO2 for 3 h. The remaining MTT solution was removed and 150 μl of dimethyl sulfoxide (DMSO) was added. The reaction was carried out at room temperature for 20 min. After completion of the reaction, absorbance was measured using a microplate reader.

[6] = system: breast cancer cell lines (MCF7, MDA-MB-231); test: MTT cell viability, breast cancer cell lines; assay type: cell-based, human; conditions: 0-10 μM, 24-96 h
Procedure: as §3

[7] = system: glioblastoma cell lines (U251, U87MG, U343); test: MTT cell viability, glioblastoma cell lines; assay type: cell-based, human; conditions: 0-10 μM, 24-96 h
Procedure: as §3

[8] = system: human blood cancer cell lines (K562, HEL, HL60); test: MTT cell viability, human blood cancer cell lines; assay type: cell-based; conditions: 0-10 μM, 24-96 h
Procedure: as §3

[9] = system: human embryonic kidney cancer cell line (293T); test: MTT cell viability, 293T; assay type: cell-based; conditions: 0-10 μM, 24-96 h
Procedure: as §3

[10] = system: glioblastoma cell lines (U343, U373MG, U251, U87MG); test: IC50 of Peptide 5-2C over time in glioblastoma cell lines; assay type: cell-based, human; conditions: one-time treatment
Procedure: After one-time treatment of various glioblastoma cell lines (U343, U373MG, U251, and U87MG) with Peptide 5-2C, IC50 values were measured with time using the Graph Prism Pad 6 program.

[11] = system: U343 glioblastoma cell line tumors; test: Mouse model transplanted with U343 glioblastoma cell line; assay type: in vivo; conditions: 3 mg/kg directly into tumor sites every three days, day 70, vs physiological saline
Procedure: U343 glioblastoma cell line (2.5×10^6 cells/50 μl) was injected subcutaneously into the backs of 5-week-old male BALB/C nude mice (n=6/group), Peptide 5-2C (3 mg/kg) was directly injected into the tumor sites every three days from the time when the tumor sizes increased to about 8 mm^2, the body weights of the mice and the volumes of the tumors were measured, the mice were sacrificed on day 70 after the peptide injection, and the tumors, blood, and major organs were excised. The tumor sizes were measured using a vernier calipers and the tumor volumes were calculated by (major axisxminor axis^2)/2. Peripheral blood was collected from the ophthalmic artery of each mouse using a microcapillary coated with EDTA and stored in a sample tube coated with 5.4 mg EDTA. The tumors and the major organs were excised by dissection. The collected blood was subjected to a fundamental complete blood cell count (CBC) using a Coulter LH 750 Hematology analyzer. After the tumors were weighed, the tumors and the major organs were stained with 4% formaldehyde. Tissue slices were prepared through paraffin section and stained with hematoxylin/eosin. Acquired data were statistically analyzed using the Excel program.

[12] = system: A431 human epidermoid carcinoma cell line tumors; test: Mouse model transplanted with A431 epidermoid carcinoma cell line; assay type: in vivo; conditions: 1.7 and 3.5 mg/kg, tail vein, every other day, five times, day 13
Procedure: After the tumors were weighed, the tumors and the major organs were stained with 4% formaldehyde. Tissue slices were prepared through paraffin section and stained with hematoxylin/eosin. Acquired data were statistically analyzed using the Excel program.

[13] = system: MDA-MB-231 cell line (LM1 cells) tumors and lung metastasis; test: Mouse model transplanted with MDA-MB-231 (LM1) breast cancer cell line; assay type: in vivo
Procedure: The collected blood was subjected to a fundamental CBC using a Coulter LH 750 Hematology analyzer. After the tumors were weighed, the tumors and the major organs were stained with 4% formaldehyde. Tissue slices were prepared through paraffin section and stained with hematoxylin/eosin. Acquired data were statistically analyzed using the Excel program.

[14] = system: CP2c; test: Luciferase reporter assay of CP2c transcriptional activity in 293T cells; assay type: cell-based, human; conditions: 2 μM, 48 h, wild-type CP2c binding sites, compared with FQI1
Procedure: 293T cells were inoculated into a 12-well plate at a density of 1×10^5 cells/well. 12 h after inoculation, cells were transfected with combinations of a reporter vector (the wild-type reporter links the enhancer sequence of the GATA-1 gene including twice repeated CP2c-binding sites to the upstream of the luciferase gene and Mut 1/3, Mut 2/4, and Mut 1-4 reporters cause mutations of the CP2c binding sites present in the enhancer sequence) and various Flag-CP2c, HA-CP2b, and HA-PIAS1 expression vectors by using the effectene method. After 1-h culture, cells were treated with FQI1, Peptide 5C, and Peptide 5-2C at concentrations of 2 μM, followed by 48-h culture. Cells were harvested and lysed in 250 μl of passive cell lysis buffer (Promega) to obtain an extract. 20 μl of the cell extract and a dual-luciferase assay kit (Promega) were used to measure the activity of the labeled luciferase gene in GLOMAX (Promega) (the expression of each expression vector was confirmed by Western blotting).

[15] = system: MCF-10A cell line; test: Cell cycle analysis by FACS, MCF-10A; assay type: cell-based, human; conditions: 0, 1, 2, 3, 10 μM, 48 h
Procedure: (§1) 5×10^5 cells of each of MEL, K562, MCF-10A, and MDA-MB-231 cell lines were inoculated into 100 mm dishes. 24 h after inoculation, cells were treated with Peptide 5-2C such that the final concentrations were 0, 1, 2, 3, and 10 μM. 48 h after Peptide 5-2C treatment, cells were collected by trypsin treatment. Thereafter, 1×10^6 cells were suspended in 0.5 ml PBS and dissociated into single cells by pipetting. The cell suspension was transferred to a centrifugal tube containing 4.5 ml of 70% ethanol and allowed to stand at 4° C. for 2 h to immobilize the cells. A cell sediment was obtained by centrifugation, washed with 5 ml of PBS solution, sufficiently suspended in 1 ml of PI staining solution, and stained in the dark for 30 min. Cell fluorescence was measured in BD FACSAria and cell cycle was analyzed using the software provided from the same company.

[16] = system: MEL cell line; test: Cell cycle analysis by FACS, MEL; assay type: cell-based, mouse; conditions: 0, 1, 2, 3, 10 μM, 48 h
Procedure: as §1

[17] = system: K562 cell line and MDA-MB-231 cell line; test: Cell cycle analysis by FACS, K562 and MDA-MB-231; assay type: cell-based, human; conditions: 0, 1, 2, 3, 10 μM, 48 h
Procedure: as §1

[18] = system: MCF7 cell line; test: Western blotting of cell cycle-related marker proteins in MCF7; assay type: cell-based, human; conditions: 2 μM for 0-72 h; 1, 2, 3 μM for 48 h
Procedure: 1×10^5 cells of MCF7 breast cancer cell line were inoculated into a 6-well plate. 24 h after inoculation, cells were treated with Peptide 5-2C at a final concentration of 2 μM. After 0, 24, 48, and 72 h, cell extracts were collected in the same manner as in Example 6. Western blotting was performed using various antibodies against cell cycle-related marker genes. On the other hand, cell extracts were obtained from the groups treated with Peptide 5-2C at final concentrations of 1, 2, and 3 μM for 48 h and Western blotting was performed in the same manner.

[19] = system: MDA-MB-231 cell line; test: Electron microscopy of cell morphology, MDA-MB-231; assay type: cell-based, human; conditions: 2 μM, 24 and 48 h
Text: The collected cells were washed once with physiological saline.

[20] = system: normal cell lines (MCF10A, BEAS2B, hMSCs, mouse primary T cells)
Procedure: as §2

[21] = system: human mesenchymal stem cells (hMSC)
[22] = system: human embryonic stem cells (hESCs, H9)
Text: MEF cells labeled with rhodamine were often used to distinguish them from hESC-derived cells.

[23] = system: MCF10A cell line
Procedure: 1.5×10^6 cells of MDA-MB-231 cell line and 5×10^5 cells of MCF10A cell line were inoculated into 100 mm dishes. […] After culture for 24 and 48 h, cells were collected. The culture solution was centrifuged and surface adherent cells were collected by trypsin treatment. The collected cells were washed once with physiological saline. The cell sediment was directly treated twice with 2.5% aqueous glutaraldehyde solution (each for 10 min). Samples for electron microscopy were prepared and imaged in accordance with general methods.

[24] = 1.7 and 3.5 mg/kg, tail vein, every three days, five times, day 30, vs control

Sequence: NYPQRPCRGDKGPDC [Peptide 5-2C, Ac-NYPQRPCRGDKGPDC-Amide]
- growth inhibition and apoptosis induction of cancer cell lines (microscopy) [1]: specifically inhibited the growth of the cancer cell lines and induced apoptosis
- formation of mammospheres and cell growth [2]: the formation of mammospheres was effectively inhibited and cell growth was decreased
- death of embryonic stem cells and co-cultured cells [3]: none of the embryonic stem cells and the co-cultured cells died
- growth inhibition and apoptosis of HPCs and cells differentiating into erythrocytes (microscopy) [4]: growth inhibition and apoptosis of the cells were not observed
- relative viability (MTT), liver cancer cell lines, compared with FQI1 [5]: more effectively inhibited the growth of the liver cancer cell lines and induced apoptosis than FQI1
- relative viability (MTT), breast cancer cell lines, compared with FQI1 [6]: more effectively inhibited the growth of the breast cancer cell lines and induced apoptosis than FQI1
- relative viability (MTT), glioblastoma cell lines, compared with FQI1 [7]: more effectively inhibited the growth of the glioblastoma cell lines and induced apoptosis than FQI1
- relative viability (MTT), K562, HEL, HL60, compared with FQI1 [8]: slightly effectively inhibited the growth of the glioblastoma cell lines and induced apoptosis compared to FQI1
- relative viability (MTT), 293T, compared with FQI1 [9]: inhibited the growth of the glioblastoma cell lines and induced apoptosis similarly to FQI1
- IC50 at 48 h compared with 96 h [10]: the IC50 values after 48 h were similar to those after 96 h
- body weight, major CBC indices, histologic/anatomic characteristics of major organs [11]: there were no differences in the weight of the mice, the major CBC indices of the mice, and the histologic/anatomic characteristics of the major organs
- reduction of tumor volume [11]: ~60%
- reduction of tumor weight [11]: ~60%
- histologic/anatomic characteristics of the major organs [12]: no significant changes in the histologic/anatomic characteristics of the major organs
- reduction of tumor volume [12]: ≥ 70%
- reduction of tumor weight [12]: ≥ 60%
- reduction of number of tumor foci metastasized to the lung [13, 24]: ~50%
- reduction of tumor weights [13, 24]: ~30%
- number of leukocytes ([13]; control tumor mice had twice the number of normal mice): close to the normal value
- CP2c-mediated transcriptional activity (luciferase reporter) [14]: effectively inhibit CP2c-mediated transcriptional activity compared to FQI1
- cell cycle changes in MCF-10A [15]: no substantial changes in cell cycle were observed
- number of cells in subG1 phase in MEL [16]: the number of cells in the subG1 phase was significantly increased only at high concentrations
- cell cycle phase distribution in K562 and MDA-MB-231 [17]: the number of cells in the S phase was decreased, the number of cells in the G2/M phase was increased, and an increase in the number of cells in the subG1 phase was dependent on the concentration of Peptide 5-2C
- expression of cell cycle-related marker proteins [18]: the expressions of Cyclin E, p21, and p53 increased gradually and the expressions of CDK1 and Cyclin B1 decreased gradually
- intracellular structural abnormalities in MDA-MB-231 (electron microscopy) [19]: significantly different intracellular structural abnormalities were observed in the Peptide 5-2C-treated group compared to in the FQI1-treated group
- effect on normal cell lines (microscopy) [20]: without substantially affecting the normal cell lines
- cytotoxicity (MTT) in hMSC [21]: no substantial cytotoxicity even at high concentrations
- cytotoxicity (MTT) in hESCs [22]: no substantial cytotoxicity even at high concentrations
- intracellular structural abnormalities in MCF10A (electron microscopy) [23]: no intracellular structural abnormalities were observed
